The text below walks through data of patent US20150017673A1, “COMPOSITIONS AND METHODS FOR DRUG-SENSITIZATION OR INHIBITION OF A CANCER CELL” (priority 2012, published 2015).

In general, IC50 refers to the concentration that inhibits the measured activity by half.

Data set [1] relates to lymphoma cell line G3. The data set is described as follows: Cell growth assay (resazurin fluorescence) on CHOP-resistant G3 NHL cells. The data set is classed as cell-based, human. The note with it: for IC50: Homo sapiens. The procedure, abridged: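 CHOP-resistant G3 NHL cells grown five days in RPMI medium were counted by haemocytometer and set to 625,000 cells/ml. They were then added to plates holding test drug, first dissolved in 100% DMSO and diluted in 0.1M PBS to 0.5% final DMSO. Plates incubated 96 hours at 37° C. and 5% CO2. Resazurin at 20 μg/ml was added for a further 24 hours, and plates were read on a BMG Polarstar at 573-605.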
(In general: Alamar Blue is a resazurin reagent that responds to reducing activity.)

Data set [2] concerns CHOP-sensitive NHL cell line CRL2631. The data set can be described thus: Cell growth assay (resazurin) on CHOP-sensitive CRL2631 NHL cells. The data set is classed as cell-based, human.
Data set [3] relates to lymphoma aspirate from a dog with CHOP-resistant lymphoma. The data set can be described thus: CHOP responsiveness of dog lymphoma aspirate (resazurin). The data set is classed as cell-based. As to the method:
A single lymphoma aspirate from a dog with CHOP-resistant lymphoma was tested for responsiveness to CHOP in the presence or absence of rifabutin. CHOP-responsiveness was measured by a decrease in fluorescence signal generated by resazurin.

Data set [4] deals with ROS in G3 lymphoma cells. The data set can be described thus: Intracellular ROS (CellROX, flow cytometry) in G3 cells. The data set is classed as cell-based, human. The note with it: 10 uM rifabutin over time. On the procedure:
Cells were then stained with the fluorescent ROS indicator, CellROX, and subjected to flow cytometry to quantitate total intracellular ROS.
The electron transport chain (ETC) is known to be a primary generator of ROS in the cell. Most of the ROS is generated by Complexes I and III of the ETC Inhibition of Complex I results in electrons piling up and leaking to react with oxygen to produce ROS.
All samples were analyzed at the same time in flow cytometry.

Data set [5] concerns G3 cells. The data set is described as follows: Modified Boyden chamber invasion assay, G3 cells. The data set is classed as cell-based, human. The note with it: 10 μM rifabutin 24 hours; DMSO 170,374. As to the method: (§1) A modified Boyden chamber assay was used as an independent method to evaluate rifabutin's ability to suppress invasion/metastasis. […] Cell invasion was assessed with a Chemicon QCM Collagen Invasion Assay (Millipore). The assay is a 96-well plate assay wherein each well is equipped with a suspended insert. Inserts contain an 8-micron membrane coated with a thin layer of polymerized collagen. Invading cells migrate through the collagen layer and attach to the bottom of the membrane. Cells were detached from the membrane and lysed prior to detection via CyQuant dye. Fluorescence intensity is proportional to number of invading cells. […] In CRL2631 cells RLU decreases from 39,356 to 27,432 RLU in the presence of rifabutin (p<0.05).

The subject of data set [6] is primary human fibroblasts. The note with it: with and without 2 uM Dox.
The conditions of data set [7]: cited from earlier work.
In data set [8] the test system is multi-drug resistant ovarian carcinoma cell line SK-OV3. The data set is described as follows: Cell growth assay on SK-OV3 cells. The note with it: SK-OV3, ovarian carcinoma. The data set is classed as cell-based, human.
Data set [9] deals with CRL2631 cells. The data set can be described thus: Collagen invasion 3D assay, CRL2631 cells. The data set is classed as cell-based, human. Particulars: 10 uM Rifabutin in collagen matrix, 24 hours. As to the method: (§2) The effects of rifabutin on cell invasion was assessed in a collagen invasion 3D assay. Increased interest in the use of 3D culture systems has been motivated by accumulating evidence that 3D models better reflect the microenvironment of tumors and metastases and more accurately predict therapeutic response in vivo compared with conventional 2D assays. A collagen invasion 3D assay allows the rapid and quantitative assessment of invasiveness and a means to screen for drugs which alter the invasive phenotype of tumor cells.
(§3) The CHOP-resistant G3 cell line is much more invasive in a collage invasion 3D assay than its CHOP-sensitive parent cell line (CRL2631). Collagen matrices (1 mg/ml) were prepared as previously described in Su, S. C., et al., Molecular profile of endothelial invasion of three-dimensional collagen matrices: insights into angiogenic sprout induction in wound healing. Am. J. Physiol. […] Cell invasion density was quantified by counting fixed cultures under transmitted light using an Olympus CK2 inverted microscope equipped with eyepieces displaying a 10×10 ocular grid. For each condition, four random fields were selected and the number of invading cells per high power field (HPF) was counted manually at 10× magnification, corresponding to 1 mm^2 area. […]

Data set [10] concerns CRL2631 cells. The data set is described as follows: Modified Boyden chamber invasion assay, CRL2631 cells. The data set is classed as cell-based, human. Particulars: 10 μM rifabutin 24 hours; DMSO 39,356. On the procedure: as §1
Data set [11] concerns G3 cells. The data set can be described thus: Collagen invasion 3D assay, G3 cells. The data set is classed as cell-based, human. The note with it: 10 uM Rifabutin in collagen matrix, 24 hours. As to the method: as §2, §3

Several values for one entry are separate records, joined by “and”; a condition that tells them apart may be missing. Equal values may be shown once. Read-outs that look alike come from different tables or passages of the source.

Turning to `CO[C@H]1/C=C/O[C@@]2(C)Oc3c(C)c(O)c4c(c3C2=O)C2=NC3(CCN(CC(C)C)CC3)NC2=C(NC(=O)/C(C)=C\C=C\[C@H](C)[C@H](O)[C@@H](C)[C@@H](O)[C@@H](C)[C@H](OC(C)=O)[C@@H]1C)C4=O` [Rifabutin, rifabutin], the “Magnitude of potentiation in combination with doxorubicin” value in data set [1] (G3, lymphoma B cells) is recorded as “+++ (potentiation greater than 5 fold increase)”; in data set [8] it was “+ (potentiation between 1.2 to 2.0 fold increase)”. The IC50 in data set [1] (analog alone, lymphoma cell line G3, read-out: IC50) is greater than 64 µM; in data set [1] (with 1 μM doxorubicin, lymphoma cell line G3, read-out: IC50 (μM) with doxorubicin (1 μM)), 0.25 µM. The “Fold increase in potency over DOX alone” value in data set [1] (lymphoma cell line G3) was determined as 9.4 fold. Moreover, the “cell growth in the absence of CHOP” value in data set [1] (rifabutin alone, G3) is recorded as “did not affect the growth”; in data set [2] (rifabutin alone, CRL2631), “did not affect the growth”. Further, in data set [2] (CHOP-sensitive cells as printed, FIG. 2B), the “sensitivity of cells to CHOP relative to a control drug” value is “enhanced the sensitivity”. In data set [2] (low-ROS CRL2631 cells, 10 uM rifabutin), the “CHOP sensitivity of low-ROS cell population” value is “sensitized to CHOP”. The “CHOP dose giving significant growth inhibition” value in data set [3] (CHOP with 5 μM rifabutin) was 320 ng/mL and 640 ng/mL. Besides, the “cell viability in the absence of CHOP” value in data set [3] (rifabutin alone) is listed as “no effect on cell viability”. For the same compound, the ROS induction result in data set [4] was “rapidly induces ROS”. Further, the “relative fluorescence (invading cells)” value in data set [5] was 114,395 RLU; in data set [10], 27,432 RLU. In addition, the “comparative cytotoxicity to normal cells” value in data set [6] is listed as “not toxic to normal cells”. In [7] (biphasic plasma elimination), the initial half-life entry is “approximately 4 hours”. Also, in [7] (biphasic plasma elimination), the mean terminal half-life is 45 (±17) hours. Besides, the “mean (±SD) peak plasma concentration (Cmax)” value in data set [7] (single oral dose of 300 mg) is recorded as 375 (±267) ng/mL. Also, the reduction of invasion result is recorded as “Less of this effect” in data set [9] and “up to 30%” in [11].
